Patent publication US20250115571A1, “OXOPIPERAZINE DERIVATIVES” (Inthera Bioscience AG, priority 2017, published 2025)

Tests used:
[1] = tested on: hormone-refractory DU-145 human prostate cancer cells; test: Cell-derived xenograft mouse model for prostate cancer (DU-145 CDX); assay type: in vivo; conditions: p.o. QD × 4 weeks; for T/C (tumor-to-control ratio, volume/volume): day 35
Method: Male BALB/c nude mice (7-9 weeks of age) were injected with hormone-refractory DU-145 human prostate cancer cells. The cells were inoculated subcutaneously into the left flank of 48 mice. When tumors reached a mean volume of approximately 105 mm^3, mice were randomly assigned to eight treatment groups of each six mice (TABLE 12). Body weights were measured three times weekly prior to the initiation of dosing and daily thereafter. Tumor burden was assessed by caliper measurement three times weekly. Dosing breaks were applied when tolerability issues arose (body weight loss>10%). The study was terminated 4 weeks post first dosing. The experiment was performed in the Crown Bioscience Ltd. (Beijing) testing facility (Ground Floor, Light Muller Building, Changping Sector of Zhongguancun Scientific Park, No. 21 Huoju Road, Changping District, Beijing, CHIN).

A549 = test: 9-day colony survival assay (CFA); assay type: cell-based; conditions: Homo sapiens, 216 h, A549 (lung), read-out: GI50 (50% growth inhibition)
HS-5 = test: 5-day cell proliferation assay (CTG); assay type: cell-based; conditions: Homo sapiens, HS5, 120 h; HS-5, 5-day cell proliferation
Method: (§1) For screening using a proliferation assay, the cells used were cultured at 37° C. with 5% CO2, except for those being cultured with L-15 medium (37° C. and 100% air, TABLE 7). Compound stock solutions (10 mM) were made in sterile water, aliquoted and stored at room temperature. Cisplatin was used as reference Control. Plastic consumables, culture media and supplements were purchased from well-known suppliers (TABLE 8).
(§2) Cell seeding (day −1). When necessary, cells were trypsinized using standard methods (see e.g. example 01). Cells were collected and resuspended in 5-6 mL of appropriate culture medium, counted and diluted to the needed density. Fifty-four μl (microliter) cells were seeded per well in a 384-well plate. Extra four wells per cell line were seeded on an additional plate for Day 0 reading (baseline cell density). Cells were incubated at 37° C. overnight.
(§3) Compound treatment and Day 0 reading (day 0). Tenfold final concentration of test compounds and Cisplatin were prepared in cell culture media (work dilutions). Six μl of work dilution solutions were dispensed into the corresponding wells in 384-well plates to bring the total volume up to 60 μl. Conditions were tested in triplicate. The plates were then incubated at 37° C. for five days. For the day 0 reading, 30 μl of CTG and 6 μl cell culture medium were added to the day 0 plates, contents mixed for 2 min on a plate shaker, and the plates incubated for 10 min at room temperature in the dark. Luminescence was recorded on an EnVision Multi Label Reader (2104-0010A, PerkinElmer, USA).
(§4) Endpoint CTG reading (day 5). The amounts of cells in the plates was determined by endpoint CTG-test. Thirty μl of CTG were added to the 60 μl of cell culture per well, contents mixed for 2 min on a plate shaker, and the plates incubated for 10 min at room temperature in the dark. Luminescence was recorded on an EnVision Multi Label Reader.
(§5) Data analysis. Fifty percent growth inhibition concentrations (GI50) were calculated based on percentage of control data (untreated cells) from each cell line (TABLE 5 (this example) and TABLE 6). Curves were fitted using a nonlinear regression model with a sigmoidal dose response. Examples of obtained curves are depicted in FIG. 2A-2F.

SW948 = test: 5-day cell proliferation assay (CTG); assay type: cell-based; conditions: Homo sapiens, 120 h, SW948, Colorectal
Method: as §1, §2, §3, §4, §5

HDFA (fibroblast) = test: 5-day cell proliferation assay (CTG); assay type: cell-based; conditions: Homo sapiens, 120 h, Skin, highest tested concentration 10 μM
Method: as §1, §2, §3, §4, §5

SNU-16 = test: 5-day cell proliferation assay (CTG); assay type: cell-based; conditions: Homo sapiens, 120 h, SNU-16, Stomach/Gastric
Method: as §1, §2, §3, §4, §5

HS 746.T = test: 5-day cell proliferation assay (CTG); assay type: cell-based; conditions: Homo sapiens, Hs746T, 120 h, Stomach/Gastric
Method: as §1, §2, §3, §4, §5

MRC-5 = test: 5-day cell proliferation assay (CTG); assay type: cell-based; conditions: Homo sapiens, MRC5, 120 h, MRC-5, Lung
Method: as §1, §2, §3, §4, §5

SW620 = test: 5-day cell proliferation assay (CTG); assay type: cell-based; conditions: Homo sapiens, SW-620, 120 h, SW620, Colorectal
Method: as §1, §2, §3, §4, §5

SW48 = test: 5-day cell proliferation assay (CTG); assay type: cell-based; conditions: Homo sapiens, 120 h, SW48, Colorectal
Method: as §1, §2, §3, §4, §5

HCT116 [2] = test: 5-day cell proliferation assay (CTG); assay type: cell-based; conditions: Homo sapiens, HCT-116, 120 h, HCT116, Colorectal
Method: as §1, §2, §3, §4, §5

RPWE-1 = test: 5-day cell proliferation assay (CTG); assay type: cell-based; conditions: Homo sapiens, 120 h, RPWE-1 (Table 6: RWPE-1), Prostate
Method: as §1, §2, §3, §4, §5

HT-29 = test: 5-day cell proliferation assay (CTG); assay type: cell-based; conditions: Homo sapiens, 120 h, HT-29, Colorectal
Method: as §1, §2, §3, §4, §5

SNU-5 = test: 5-day cell proliferation assay (CTG); assay type: cell-based; conditions: Homo sapiens, 120 h, SNU-5, Stomach/Gastric
Method: as §1, §2, §3, §4, §5

[3] = tested on: HCT116 human colon cancer cells; test: Cell-derived xenograft mouse model for colorectal cancer (HCT116 CDX); assay type: in vivo; conditions: for T/C (tumor-to-control ratio, volume/volume): day 37
Method: Female BALB/c nude mice (8-9 weeks of age) were injected with HCT116 human colon cancer cells. The cells were inoculated subcutaneously into the left flank of 48 mice. When tumors reached a mean volume of approximately 100 mm^3, mice were randomly assigned to eight treatment groups of each six mice (TABLE 14). Body weights were measured three times weekly prior to the initiation of dosing and daily thereafter. Tumor burden was assessed by caliper measurement twice weekly. Dosing breaks were applied when tolerability issues arose (body weight loss>10%). The study was terminated four weeks post first dosing. The experiment was performed in the Crown Bioscience Ltd. (Beijing) testing facility (Ground Floor, Light Muller Building, Changping Sector of Zhongguancun Scientific Park, No. 21 Huoju Road, Changping District, Beijing, CHN).

PC3 = test: 9-day colony survival assay (CFA); assay type: cell-based; conditions: Homo sapiens, PC-3, 216 h, PC3 (prostate), read-out: GI50 (50% growth inhibition)
HCT116 [4] = test: 9-day colony survival assay (CFA); assay type: cell-based; conditions: Homo sapiens, HCT-116, 216 h, HCT116 (colon), read-out: GI50 (50% growth inhibition)

| Compound | Tumor Size day 35 (Mean ± SEM) ([1]; 3 mg/kg) [mm^3] | T/C (tumor-to-control ratio, volume/volume) ([1]; 3 mg/kg) [%] | GI50 (A549) [nM] | GI50 (HS-5) [nM] | GI50 (SW948) [nM] | GI50 (HDFA (fibroblast)) [nM] | GI50 (SNU-16) [nM] | GI50 (HS 746.T) [nM] | GI50 (MRC-5) [nM] | GI50 (SW620) [nM] | GI50 (SW48) [nM] | GI50 (HCT116 [2]) [nM] | GI50 (RPWE-1) [nM] | GI50 (HT-29) [nM] | GI50 (SNU-5) [nM] | Tumor Size day 37 (Mean ± SEM) ([3]; 6 mg/kg, p.o. QD) [mm^3] | p vs. Group-2 (Avastin, 10 mg/kg, BIW) ([3]; 6 mg/kg, p.o. QD) | T/C (tumor-to-control ratio, volume/volume) ([3]; 6 mg/kg, p.o. QD) [%] | GI50 (PC3) [nM] | GI50 (HCT116 [4]) [nM] | other results |
| --- | --- | --- | --- | --- | --- | --- | --- | --- | --- | --- | --- | --- | --- | --- | --- | --- | --- | --- | --- | --- | --- |
| CC(C)C[C@@H]1NCCN([C@@H](CC(C)C)C(=O)N2CCC3(C[C@@H]2C)OCC(CN2CCC2)CO3)C1=O (stereo partly drawn) [Compound 284, (3S)-1-[(2S)-4-methyl-1-oxo-1-[(3s,6s,8S)-3-(azetidin-1-ylmethyl)-8-methyl-1,5-dioxa-9-azaspiro[5.5]undec-an-9-yl]pentan-2-yl]-3-(2-methylpropyl)piper-azin-2-one (^≠), isomer Z] | 347 ± 48 | 50.1 | 10 | 10 | 12 | > 10000 | 22 | 14 | 25 | 7 | 14 | 9 | 10 | 7 | 6 | 942.0 ± 114.9 | Group-2 vs. Group-7, p = 0.165; | 79.3 | 3 | 1.5 | Tumor Size day 37 (Mean ± SEM) ([3]; 3 mg/kg, p.o. QD): 827.4 ± 125.7 mm^3; p vs. Group-2 (Avastin, 10 mg/kg, BIW) ([3]; 3 mg/kg, p.o. QD): Group-2 vs. Group-8, p = 0.509;; T/C (tumor-to-control ratio, volume/volume) ([3]; 3 mg/kg, p.o. QD): 69.7% |
| CC(C)C[C@@H]1NCCN([C@@H](CC(C)C)C(=O)N2CCC3(C[C@@H]2C)OCC(CN2CCC4(CC2)CC4)CO3)C1=O (stereo partly drawn) [Compound 279, (3S)-1-[(2S)-4-methyl-1-oxo-1-[(3s,6s,8S)-3-{6-azaspiro[2.5]octan-6-ylmethyl}-8-methyl-1,5-dioxa-9-azaspiro[5.5]undec-an-9-yl]pentan-2-yl]-3-(2-methylpropyl)piper-azin-2-one (^≠), isomer Z] | 516 ± 59 | 74.5 | 5 | 3 | 3 | > 10000 | 10 | 5 | 10 | 2 | 6 | 3 | 3 | 4 | 3 | 1064.0 ± 141.1 | Group-2 vs. Group-6, p = 0.070; | 89.6 | 1.5 | 1 |  |
| CC(C)C[C@@H]1NCCN([C@@H](CC(C)C)C(=O)N2CCC3(C[C@@H]2C)OCC(CN2CCCC2)CO3)C1=O (stereo partly drawn) [Compound 258, (3S)-1-[(2S)-4-methyl-1-oxo-1-[(3s,6s,8S)-8-methyl-3-(pyrrolidin-1-ylmethyl)-1,5-dioxa-9-azaspiro[5.5]undec-an-9-yl]pentan-2-yl]-3-(2-methylpropyl)piper-azin-2-one (^≠), isomer Z] | 105 ± 25 | 15.2 | 5 | 5 | 10 | > 10000 | 13 | 8 | 12 | 4 | 9 | 5 | 4 | 4 | 4 | 253.2 ± 39.2 | Group-2 vs. Group-4, p = 0.001; | 21.3 | 3 | 1.5 | Tumor Size day 35 (Mean ± SEM) ([1]; 1 mg/kg): 378 ± 27 mm^3; T/C (tumor-to-control ratio, volume/volume) ([1]; 1 mg/kg): 54.5%; Tumor Size day 35 (Mean ± SEM) ([1]; 6 mg/kg): 32 ± 2 mm^3; T/C (tumor-to-control ratio, volume/volume) ([1]; 6 mg/kg): 4.6%; Tumor Size day 35 (Mean ± SEM) ([1]; 10 mg/kg): 47 ± 4 mm^3; T/C (tumor-to-control ratio, volume/volume) ([1]; 10 mg/kg): 6.8%; Tumor Size day 37 (Mean ± SEM) ([3]; 3 mg/kg, p.o. QD): 436.2 ± 58.9 mm^3; p vs. Group-2 (Avastin, 10 mg/kg, BIW) ([3]; 3 mg/kg, p.o. QD): Group-2 vs. Group-5, p = 0.028;; T/C (tumor-to-control ratio, volume/volume) ([3]; 3 mg/kg, p.o. QD): 36.7%; Tumor Size day 37 (Mean ± SEM) ([3]; 20 mg/kg, p.o. BIW): 696.8 ± 93.7 mm^3; p vs. Group-2 (Avastin, 10 mg/kg, BIW) ([3]; 20 mg/kg, p.o. BIW): Group-2 vs. Group-3, p = 0.865;; T/C (tumor-to-control ratio, volume/volume) ([3]; 20 mg/kg, p.o. BIW): 58.7% |
